These results are taken from patent publication US7601686B2, “Hepatitis C virus inhibitors” (Bristol-Myers Squibb Company, priority 2005, dated 2009).

For assay [1], the target named is T1, porcine pancreatic elastase (PPE) (Sus scrofa, UniProt P00772).
T1 construct: purchased Sigma
As to the kind of experiment: Specificity assay, porcine pancreatic elastase. The assay is classed as biochemical. The note with it: 2 h enzyme-inhibitor pre-incubation; read-out: PPE activity in the specificity assays. The procedure: (§1) The specificities of compounds of the present disclosure were determined against a variety of serine proteases: human neutrophil elastase (HNE), porcine pancreatic elastase (PPE) and human pancreatic chymotrypsin and one cysteine protease: human liver cathepsin B. In all cases a 96-well plate format protocol using colorimetric p-nitroaniline (pNA) substrate specific for each enzyme was used as described previously (PCT Patent Application No. WO 00/09543) with some modifications to the serine protease assays. All enzymes were purchased from Sigma while the substrates were from Bachem.
(§2) Each assay included a 2 h enzyme-inhibitor pre-incubation at room temperature followed by addition of substrate and hydrolysis to ˜30% conversion as measured on a Spectramax Pro microplate reader. Compound concentrations varied from 100 to 0.4 μM depending on their potency.
(§3) The final conditions for each assay were the same as those described in WO 03/099274, page 623.
(§4) The percentage of inhibition was calculated using the formula: [1−((UVinh−UVblank)/(UVctl−UVblank))]×100
(§5) A non-linear curve fit was applied to the inhibition-concentration data, and the 50% effective concentration (IC50) was calculated by the use of Excel XLfit software.

The next assay deals with T2, human liver cathepsin B (Homo sapiens, UniProt P07858).
T2 construct: purchased Sigma; host or cells: human liver
As to the kind of experiment: Specificity assay, cathepsin B. The assay is classed as biochemical. The note with it: 2 h enzyme-inhibitor pre-incubation; read-out: Cathepsin B activity in the specificity assays. Here is the method: as §1, §2, §3, §4, §5

For assay [2], the system named is human pancreatic chymotrypsin. As to the kind of experiment: Specificity assay, chymotrypsin. The class given is biochemical. Conditions: 2 h enzyme-inhibitor pre-incubation; read-out: Chymotrypsin activity in the specificity assays. Here is the method:
as §1, §2, §3, §4, §5

Assay [3] deals with T3, human neutrophil elastase (HNE) (Homo sapiens, UniProt P08246).
T3 construct: purchased Sigma
T3 sequence (P08246 30-267): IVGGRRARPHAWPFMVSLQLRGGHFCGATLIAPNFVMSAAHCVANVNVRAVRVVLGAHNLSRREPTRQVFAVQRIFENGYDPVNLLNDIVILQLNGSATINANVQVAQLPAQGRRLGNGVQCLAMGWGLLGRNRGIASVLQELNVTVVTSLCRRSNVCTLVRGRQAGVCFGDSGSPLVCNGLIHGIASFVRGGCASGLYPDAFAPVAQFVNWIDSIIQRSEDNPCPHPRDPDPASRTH
As to the kind of experiment: Specificity assay, human neutrophil elastase. The class given is biochemical. The note with it: 2 h enzyme-inhibitor pre-incubation; read-out: HLE activity in the specificity assays. The procedure:
as §1, §2, §3, §4, §5

Assay [4] has as its system HCV replicon in HUH-7 cells. As to the kind of experiment: HCV replicon FRET assay. The class given is cell-based, Hepatitis C virus (strain 1b). The note with it: Hepatitis C virus. The gist of the method:
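HUH-7 cells stably carrying a genotype 1b subgenomic HCV replicon (neo selection) treated with compound for 4 days at 37 °C, 0.5% DMSO final. Cytotoxicity (CC50) from alamar Blue fluorescence after 4 h (ex 530/em 580 nm), before the FRET replication read-out.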
(In general: In antiviral work, replicon cells carry a viral genome segment that copies itself.)

Like-named read-outs stand apart in the source and are kept apart here.

T1 sequence (P00772 27-266): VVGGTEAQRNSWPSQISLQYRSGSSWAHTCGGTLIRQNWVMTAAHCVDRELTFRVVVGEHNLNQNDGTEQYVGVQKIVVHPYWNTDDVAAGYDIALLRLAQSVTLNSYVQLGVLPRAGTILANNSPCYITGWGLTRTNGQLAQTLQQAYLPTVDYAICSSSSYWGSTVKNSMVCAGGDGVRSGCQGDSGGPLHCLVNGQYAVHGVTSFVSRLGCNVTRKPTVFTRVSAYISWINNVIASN

Regarding `C=CC1CC1(NC(=O)[C@@H]1C[C@@H](NC(=O)c2cc(-c3ccccc3)nc3ccccc23)CN1C(=O)[C@@H](NC(=O)CC1CC1)C(C)(C)C)C(=O)NS(=O)(=O)C1CC1` (stereo partly drawn) [Compound 9], the IC50 in assay [1] is greater than 100 µM; on human liver cathepsin B it was greater than 100 µM; in assay [2], 65 µM; in assay [3], greater than 100 µM. For the same compound, the EC50 in assay [4] (HCV replicon cell assay, HUH-7, read-out: EC50 Range) is 0.15 to 15 µM; in assay [4] (HCV replicon, HUH-7 cells, read-out: EC50 value in the replicon assay), 2.25 µM.

As usually defined, the EC50 is the concentration that produces a half-maximal response.
